Reference: ChEMBL document CHEMBL3885861, “Open TG-GATES”

Species: Rattus norvegicus
Experiment: Open TG-GATES - Regimen: Single
Format: toxicity, organism-based, Sprague-Dawley
Set-up: regimen Single, gender Male, age 6 weeks
Settings: in vivo, po, 1000 mg/kg, route gavage, dose level High; for APTT / Bas / Eos / Fbg / Hb / Ht / Lym / MCH / MCHC / MCV / Mono / Neu / PT / Plat / RBC / Ret / WBC: tissue Blood; for KIDNEY_L / KIDNEY_R / KIDNEY_TOTAL: tissue Kidney; for LIVER: tissue Liver; for A/G / ALP / ALT / AST / BUN / CRE / Ca / Cl / DBIL / GLC / IP / K / LDH / Na / PL / RALB / TBIL / TC / TG / TP / gamma-GTP: tissue Plasma

`O=C(OC[C@H]1O[C@@H](OC(=O)c2cc(O)c(O)c(OC(=O)c3cc(O)c(O)c(O)c3)c2)[C@H](OC(=O)c2cc(O)c(O)c(OC(=O)c3cc(O)c(O)c(O)c3)c2)[C@@H](OC(=O)c2cc(O)c(O)c(OC(=O)c3cc(O)c(O)c(O)c3)c2)[C@@H]1OC(=O)c1cc(O)c(O)c(OC(=O)c2cc(O)c(O)c(O)c2)c1)c1cc(O)c(O)c(OC(=O)c2cc(O)c(O)c(O)c2)c1` [TANNIC ACID] gave a TERMINAL_BW (3 h) of 189.4 g, an APTT (3 h) of 17.2 s and a Bas (3 h) of 0%. The Eos (3 h) was 1%, the Fbg (3 h) was 221.2 mg/dL and the Hb (3 h) was 13 g/dL. For the same compound, the Ht (3 h) was 38.9%, the Lym (3 h) was 81.6% and the MCH (3 h) was 21.7 pg. It also gave an MCHC (3 h) of 33.3%, an MCV (3 h) of 65.1 fL and a Mono (3 h) of 4.8%. It also gave a Neu (3 h) of 12.8%, a PT (3 h) of 11.9 s and a Plat (3 h) of 110.6 x10_4/uL. The RBC (3 h) was 597.4 x10_4/ul, the Ret (3 h) was 10.3% and the WBC (3 h) was 104.1 x10_2/uL. It also gave a KIDNEY_L (3 h) of 0.9 g, a KIDNEY_R (3 h) of 0.9 g and a KIDNEY_TOTAL (3 h) of 1.8 g. The LIVER (3 h) was 8.5 g, the A/G (3 h) was 2 and the ALP (3 h) was 805 IU/L. The ALT (3 h) was 39.6 IU/L, the AST (3 h) was 69.6 IU/L and the BUN (3 h) was 12.2 mg/dL. For the same compound, the CRE (3 h) was 0.4 mg/dL, the Ca (3 h) was 10.8 mg/dL and the Cl (3 h) was 104.6 meq/L. The DBIL (3 h) was 0.016 mg/dL, the GLC (3 h) was 191.4 mg/dL and the IP (3 h) was 10.2 mg/dL. It also gave a K (3 h) of 4.9 meq/L, an LDH (3 h) of 101.8 IU/L and a Na (3 h) of 138.2 meq/L. For the same compound, the PL (3 h) was 128.2 mg/dL, the RALB (3 h) was 3.7 g/dL and the TBIL (3 h) was 0.5 mg/dL. It also gave a TC (3 h) of 72.8 mg/dL, a TG (3 h) of 35.8 mg/dL and a TP (3 h) of 5.5 g/dL. It also gave a gamma-GTP (3 h) of 1.2 IU/L, a TERMINAL_BW (6 h) of 183.9 g and an APTT (6 h) of 16.7 s. It also gave a Bas (6 h) of 0%, an Eos (6 h) of 1% and a Fbg (6 h) of 211 mg/dL. The Hb (6 h) was 13.5 g/dL, the Ht (6 h) was 40.6% and the Lym (6 h) was 76.2%. For the same compound, the MCH (6 h) was 22 pg, the MCHC (6 h) was 33.3% and the MCV (6 h) was 66.1 fL. The Mono (6 h) was 7%, the Neu (6 h) was 16.2% and the PT (6 h) was 12 s. For the same compound, the Plat (6 h) was 115.1 x10_4/uL, the RBC (6 h) was 613.8 x10_4/ul and the Ret (6 h) was 9.7%. It also gave a WBC (6 h) of 101 x10_2/uL, a KIDNEY_L (6 h) of 0.9 g and a KIDNEY_R (6 h) of 0.9 g. For the same compound, the KIDNEY_TOTAL (6 h) was 1.8 g, the LIVER (6 h) was 7.5 g and the A/G (6 h) was 1.8. For the same compound, the ALP (6 h) was 682.8 IU/L, the ALT (6 h) was 41.4 IU/L and the AST (6 h) was 68.8 IU/L. For the same compound, the BUN (6 h) was 11.4 mg/dL, the CRE (6 h) was 0.4 mg/dL and the Ca (6 h) was 10.6 mg/dL. It also gave a Cl (6 h) of 105.8 meq/L, a DBIL (6 h) of 0.008 mg/dL and a GLC (6 h) of 183.4 mg/dL. It also gave an IP (6 h) of 11 mg/dL, a K (6 h) of 5 meq/L and an LDH (6 h) of 81.4 IU/L. The Na (6 h) was 138.8 meq/L, the PL (6 h) was 113.6 mg/dL and the RALB (6 h) was 3.4 g/dL. The TBIL (6 h) was 0.7 mg/dL, the TC (6 h) was 65.2 mg/dL and the TG (6 h) was 22.2 mg/dL. For the same compound, the TP (6 h) was 5.3 g/dL, the gamma-GTP (6 h) was 1.2 IU/L and the TERMINAL_BW (9 h) was 185.5 g. For the same compound, the APTT (9 h) was 16.9 s, the Bas (9 h) was 0% and the Eos (9 h) was 1%. For the same compound, the Fbg (9 h) was 221 mg/dL, the Hb (9 h) was 13.1 g/dL and the Ht (9 h) was 39.1%. It also gave a Lym (9 h) of 73%, an MCH (9 h) of 22.3 pg and an MCHC (9 h) of 33.6%. The MCV (9 h) was 66.5 fL, the Mono (9 h) was 8% and the Neu (9 h) was 18.4%. It also gave a PT (9 h) of 12.3 s, a Plat (9 h) of 119.4 x10_4/uL and an RBC (9 h) of 589.2 x10_4/ul. The Ret (9 h) was 9.2%, the WBC (9 h) was 87.8 x10_2/uL and the KIDNEY_L (9 h) was 0.9 g. It also gave a KIDNEY_R (9 h) of 0.8 g, a KIDNEY_TOTAL (9 h) of 1.7 g and an LIVER (9 h) of 7.1 g. The A/G (9 h) was 2.3, the ALP (9 h) was 772.8 IU/L and the ALT (9 h) was 42.4 IU/L. The AST (9 h) was 68.8 IU/L, the BUN (9 h) was 12.2 mg/dL and the CRE (9 h) was 0.4 mg/dL. The Ca (9 h) was 10.2 mg/dL, the Cl (9 h) was 106.8 meq/L and the DBIL (9 h) was 0.08 mg/dL. It also gave a GLC (9 h) of 193 mg/dL, an IP (9 h) of 10.8 mg/dL and a K (9 h) of 5 meq/L. It also gave an LDH (9 h) of 69 IU/L, a Na (9 h) of 137 meq/L and a PL (9 h) of 113.8 mg/dL. For the same compound, the RALB (9 h) was 3.7 g/dL, the TBIL (9 h) was 0.9 mg/dL and the TC (9 h) was 61.6 mg/dL. The TG (9 h) was 16 mg/dL, the TP (9 h) was 5.4 g/dL and the gamma-GTP (9 h) was 2 IU/L. For the same compound, the TERMINAL_BW (24 h) was 198.6 g, the APTT (24 h) was 17.8 s and the Bas (24 h) was 0%. The Eos (24 h) was 1%, the Fbg (24 h) was 221.4 mg/dL and the Hb (24 h) was 12.6 g/dL. The Ht (24 h) was 38.2%, the Lym (24 h) was 75.2% and the MCH (24 h) was 21.5 pg. For the same compound, the MCHC (24 h) was 33.1%, the MCV (24 h) was 64.8 fL and the Mono (24 h) was 9.2%. For the same compound, the Neu (24 h) was 15%, the PT (24 h) was 11.8 s and the Plat (24 h) was 104.8 x10_4/uL. For the same compound, the RBC (24 h) was 588.8 x10_4/ul, the Ret (24 h) was 9.3% and the WBC (24 h) was 91 x10_2/uL. The KIDNEY_L (24 h) was 0.9 g, the KIDNEY_R (24 h) was 0.9 g and the KIDNEY_TOTAL (24 h) was 1.7 g. The LIVER (24 h) was 9.2 g, the A/G (24 h) was 1.9 and the ALP (24 h) was 893.8 IU/L. It also gave an ALT (24 h) of 36.4 IU/L, an AST (24 h) of 62.4 IU/L and a BUN (24 h) of 18 mg/dL. The CRE (24 h) was 0.5 mg/dL, the Ca (24 h) was 10.8 mg/dL and the Cl (24 h) was 104.2 meq/L. For the same compound, the DBIL (24 h) was 0 mg/dL, the GLC (24 h) was 184 mg/dL and the IP (24 h) was 7.8 mg/dL. For the same compound, the K (24 h) was 4.6 meq/L, the LDH (24 h) was 110.8 IU/L and the Na (24 h) was 138.6 meq/L. For the same compound, the PL (24 h) was 133.4 mg/dL, the RALB (24 h) was 3.5 g/dL and the TBIL (24 h) was 0.3 mg/dL. It also gave a TC (24 h) of 72.2 mg/dL, a TG (24 h) of 79.6 mg/dL and a TP (24 h) of 5.4 g/dL. It also gave a gamma-GTP (24 h) of 0.8 IU/L.
